Results as given in patent publication US8552035B2, “Phenanthrenone compounds, compositions and methods” (Pfizer Inc., priority 2008, dated 2013).

What was measured:
[1] = test system: osteocalcin; assay: 28-day mouse side-effect model, serum osteocalcin suppression; assay type: in vivo; conditions: oral gavage 28 days
Protocol: 10-12 week old female Swiss Webster mice (Taconic, Germantown, N.Y., U.S.A.) weighing 27-29 grams are used in accordance with the guidelines of the Institutional Animal Care and Use Committee and in accordance with NIH guidelines on laboratory animal welfare. Mice are acclimated to the Pfizer animal facility for 3-7 days prior to being placed on study. Prednisolone and DAGR compounds are administered by oral gavage for a total of 28 days. Each treatment group generally contains 8-10 mice. To establish a dosing regimen for the studies, a pilot pharmacodynamic time course experiment is conducted to quantify TNFa repression after a single ED80 dose (determined from the acute LPS endotoxemia mouse model). […] DAGR compounds vary in their required frequency of doses.
Body weights are measured on the first and last day of each experiment. Blood samples are obtained after ˜3 weeks of dosing for steady-state pharmacokinetic analysis. To assess compound effects on LPS-induced TNF-a, all mice receive an intraperitoneal injection of LPS (Salmonella Typhosa, Sigma, St. Louis, L-7895) 2.5 hr after the last dose on day 28. Mice are sacrificed 90 min. after LPS administration. Serum samples are assayed for osteocalcin and TNFa using the Linco multiplex assay (St. Charles, Mo.) and Luminex 100 (Austin, Tex.). Samples are diluted 1:20 and the assay is run according to manufacturer's instructions. An osteocalcin standard is purchased separately from Biomedical Technologies Incorporated (Stoughton, Mass.). Serum insulin is measured to assess compound effects on insulin resistance. Insulin was measured using the UltraSensitive Mouse EIA kit from Alpco Diagnostics (Salem, N.H.) following the manufacturer's protocol.
(§1) ED50 and ED80 values are obtained for the various parameters using four-parameter logistic fits of data. For each experiment/dose group, outliers are detected by calculating the number of standard deviations each mouse's value was from the mean of their group and then dividing by the standard deviation of the group. The means and standard deviations used in this calculation omitted the value being examined so that, if it were an outlier, it would have no influence. If the value being examined is more than 2.5 standard deviations from the mean, it was not used in the rest of the calculations.
(§2) Percent inhibition values are then calculated for each animal using the means of the vehicle and 10 mpk prednisone control groups. The individual mouse percent inhibition values are then fit to a four-parameter logistic model using the area under curve mean for each group. Since all four parameters are estimated and the lower plateau is not fixed at 0% and the upper plateau was not fixed at 100%, the ED50 and ED80 values are calculated by using an inverse calibration formula for a response equal to 50% or 80%. The designation “nd” means not determined.

[2] = test system: Mouse collagen-induced arthritis; assay: Therapeutic mouse collagen-induced arthritis (mCIA); assay type: in vivo
Text: Mouse Collagen-induced arthritis is a commonly used chronic, preclinical model of rheumatoid arthritis in which joint swelling and bone destruction occur following immunization with type II collagen. Reduction of disease incidence and severity has been shown previously to be predictive of disease-modification and signs and symptoms mitigation, respectively, in a clinical setting.
In the therapeutic mCIA model, induction of disease incidence and severity was synchronized via LPS stimulation. Male DBA/J mice were immunized with 100 ug of bovine type II collagen (bCII) on day 0. All mice received an intraperitoneal injection of 20 μg of LPS on day 28 and disease was allowed to develop through day 34. At day 34, all mice had disease (incidence=100%) with an average severity score of seven. Dosing of compounds was initiated in the therapeutic mode on day 34 and continued through day 49. Different treatments were compared by measuring the decrease in incidence (i.e., resolution of disease) and the decrease in severity of paw swelling over time.
as §1, §2

[3] = test system: IL-1β; assay: LPS-induced human whole blood, IL-1β release; assay type: cell-based
Protocol: Venous blood from human donors was collected as 10 ml aliquots in tubes containing sodium heparin (BD Vacutainer from Becton Dickinson and Company, Franklin Lakes, N.Y.). Blood was added to sterile polystyrene round bottom 96-well tissue culture plates (Corning Costar) at 180 Blood was placed in a humidified 37 C incubator with 5% CO2 while compounds were prepared (nearly 60 minutes).
Compounds were prepared from 10 mM stock solutions in dimethylsulfoxide (DMSO, Sigma-Aldrich). Stock compound was diluted in DMSO to give appropriate starting concentration then diluted serially 1/3 in DMSO (i.e. 15 μl compound+30 μl DMSO), followed by diluting each serial dilution 1/167 into vehicle solution (2% DMSO in phosphate buffered saline (Dulbecco's Phosphate Buffered Saline without calcium chloride without magnesium chloride, Invitrogen Corporation, Carlsbad Calif.)). Compound or vehicle was added to blood in 10 μl aliquots as triplicates, omitting the outside wells to minimize possible edge effects. The final highest concentration of each compound in the assay ranged from 3 to 0.3 μM. Final DMSO concentration in the assay was 0.1%. The plate containing the samples was gently vortexed to mix and replaced in the incubator. LPS stock (E. coli serotype 0111:B4, Sigma-Aldrich), stored in aliquots of 100 μg/ml in RPMI at −20° C., was diluted […] in RPMI to make a working stock solution. After 60 minutes of incubation, 10 μl of the prepared LPS working stock was added to the blood to a final concentration of 100 ng/ml. Wells to be used as negative control received RPMI media with no LPS. The plate was again gently vortexed and the plates incubated overnight for 22 hours. Following incubation, the blood was centrifuged at 1500×g for 5 minutes and the plasma removed to either freeze at −20° C. or assay for cytokine release.
IL-1β, IFNγ and TNFα protein levels were measured using Meso Scale assay kits (Meso Scale Discovery, Gaithersburg, Md., U.S.A.). Reagents were allowed to come to room temperature. Meso Scale plates were blocked with 150 μl of Meso Scale Block B diluent, gently shaking at room temperature for 60 minutes. Plates were washed 3× with wash buffer (PBS, Invitrogen Corporation, with 0.05% Tween-20, Sigma-Aldrich). Calibrators for standard curves were prepared in human plasma/serum assay diluent as a 1/5 serial dilution to achieve final concentrations ranging from 50000 pg/ml to 3.2 pg/ml. Samples were added at 10 to 20 μl/well and calibrators were added at 20 μl/well then incubated at room temperature with gentle shaking for 2 hours. Plates were again washed 3× with wash buffer. Detection antibody was diluted in human plasma/serum antibody diluent to 1 μg/ml and added to the plate at 20 μl/well. Plates were incubated as before for 2 hours and washed again. Read Buffer T (4×) was diluted 1:1 with mqH20 to 2× concentration and 150 μl added to each well. Plates were read on the SECTOR Imager 6000 (Meso Scale Discovery) to generate raw signal values.
Individual sample signal values were compared to positive and negative controls (vehicle treated blood with LPS and vehicle treated blood without LPS, respectively) to generate % inhibition. Triplicate values were averaged for each donor. The values for three or four donors were averaged and graphed using 4-parameter fit curves in the LabStats plug-in for the Microsoft Excel application.

SMILES: Cc1ncccc1NC(=O)c1ccc2c(c1)C(=O)C[C@@H]1C[C@@](O)(c3ccccc3)[C@](C)(O)C[C@@]21Cc1ccccc1 [Example 1, (4bR,6R,7R,8aS)-4b-benzyl-6,7-dihydroxy-6-methyl-N-(2-methylpyridin-3-yl)-10-oxo-7-phenyl-4b,5,6,7,8,8a,9,10-octahydrophenanthrene-2-carboxamide]
- ED50 at 28 days ([1]; female, Swiss Webster, read-out: Osteocalcin Suppression (ED50 dose)): 0.081 mg/kg
- Osteocalcin Suppression (ED80 dose) [1]: 0.35
- ED50 ([2]; 816 h, dosing day 34 to 49, read-out: Therapeutic mCIA (ED50 dose)): 0.3 mg/kg
- Therapeutic mCIA (ED80 dose) ([2]; dosing day 34 to 49): 1.61
- inhibition at 0.000137174 µM ([3]; Homo sapiens, 0.137174 nM, mean of donors): -0.94%
- inhibition at 0.000411523 µM ([3]; Homo sapiens, 0.411523 nM, mean of donors): -1.08%
- inhibition at 0.00123457 µM ([3]; Homo sapiens, 1.234568 nM, mean of donors): 1.18%
- inhibition at 0.0037037 µM ([3]; Homo sapiens, 3.703704 nM, mean of donors): 5.14%
- inhibition at 0.0111111 µM ([3]; Homo sapiens, 11.11111 nM, mean of donors): 15.4%
- inhibition at 0.0333333 µM ([3]; Homo sapiens, 33.33333 nM, mean of donors): 26.4%
- inhibition at 0.1 µM ([3]; Homo sapiens, 100 nM, mean of donors): 37.6%
- inhibition at 0.3 µM ([3]; Homo sapiens, 300 nM, mean of donors): 38%
- level of inhibition of IL-1 ([3]; ex vivo LPS-stimulated human whole blood, extent of inhibition, concentration not given): 38%
